Drawing on US20090042964A1, “AMINO-5-[SUBSTITUTED-4-(DIFLUOROMETHOXY)PHENYL]-5-PHENYLIMIDAZOLONE COMPOUNDS AS BETA-SECRETASE INHIBITORS” (Wyeth, priority 2007, published 2009), this text covers IC50 for 28 molecules.

The term IC50 denotes the concentration that gives 50% inhibition.

Sequence of human BACE1 (P56817 46-501): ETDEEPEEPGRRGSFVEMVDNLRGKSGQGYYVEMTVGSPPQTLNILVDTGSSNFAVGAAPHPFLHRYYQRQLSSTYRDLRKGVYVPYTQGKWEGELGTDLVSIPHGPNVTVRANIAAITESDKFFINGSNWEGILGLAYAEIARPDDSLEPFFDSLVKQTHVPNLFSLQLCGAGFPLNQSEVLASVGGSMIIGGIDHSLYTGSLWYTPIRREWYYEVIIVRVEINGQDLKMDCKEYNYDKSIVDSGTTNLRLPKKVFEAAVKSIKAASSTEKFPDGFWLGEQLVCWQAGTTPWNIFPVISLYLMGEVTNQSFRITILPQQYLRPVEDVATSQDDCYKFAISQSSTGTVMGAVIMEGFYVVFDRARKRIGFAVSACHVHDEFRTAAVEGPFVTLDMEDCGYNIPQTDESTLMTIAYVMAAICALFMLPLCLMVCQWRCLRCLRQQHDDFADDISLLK

This assay concerns the target human BACE1 (Homo sapiens, UniProt P56817). The experiment in a line: Fluorescent kinetic assay, evaluation of BACE1 binding affinity of test compounds. The assay is classed as biochemical. The note with it: 10 nM human BACE1, 25 μM substrate WABC-6, pH 4.5, room temperature; read-out: BACE1 IC50. On the procedure: Concentration is determined by absorbance at 354 nm using an extinction coefficient of 18172 M^-1 cm^-1, the concentration of stock substrate is corrected, and the substrate stock stored in small aliquots in -80° C. […] Determination of Stock Enzyme Concentration: the stock concentration of each enzyme is determined by absorbance at 280 nm using an of 64150 M^-1 cm^-1 for hBACE1 and MuBACE1, 62870 M^-1 cm^-1 for hBACE2 in 6 M Guanidinium Hydrochloride (from Research Organics, Cat. # 5134G-2), pH 6. […] Biochem. 182, 319-326). Dilution and mixing steps: total reaction volume: 100 μL 2× inhibitor dilutions in buffer A (66.7 mM Na-Acetate, pH 4.5, 0.0667% CHAPS) were prepared, 4× enzyme dilution in buffer A (66.7 mM Na-Acetate, pH 4.5, 0.0667% CHAPS) were prepared, 100 μM substrate dilution in 1×PBS was prepared, and 50 μL 2× Inhibitor, 25 μL 100 μM substrate are added to each well of 96-well plate (from DYNEX Technologies, VWR #: 11311-046), immediately followed by 25 μL 4× enzyme (added to the inhibitor and substrate mix), and the fluorescence readings are initiated.
Regarding `COCC/C=C/c1cc(C2(c3ccc(OC(F)F)c(C)c3)N=C(N)N(C)C2=O)ccc1F` (stereo not shown) [Example 60, 2-Amino-5-[4-(difluoromethoxy)-3-methylphenyl]-5-[4-fluoro-3-((E)-4-methoxy-but-1-enyl)phenyl]-3-methyl-3,5-dihydro-4H-imidazol-4-one], the IC50 was less than 100 nM.
With `C/C=C/c1cccc(C2(c3ccc(OC(F)F)c(C)c3)N=C(N)N(C)C2=O)c1` (stereo not shown) [Example 61, 2-Amino-5-[4-(difluoromethoxy)-3-methylphenyl]-3-methyl-5-[((E)-3-prop-1-enyl)phenyl]-3,5-dihydro-4H-imidazol-4-one], the IC50 is less than 100 nM.
In the case of `COC/C=C/c1cccc(C2(c3ccc(OC(F)F)c(C)c3)N=C(N)N(C)C2=O)c1` (stereo not shown) [Example 62, 2-Amino-5-[4-(difluoromethoxy)-3-methylphenyl]-5-[3-((E)-3-methoxyprop-1-enyl)phenyl]-3-methyl-3,5-dihydro-4H-imidazol-4-one] it was less than 100 nM.
On to `Cc1cc(C2(c3cccc(/C=C/CCF)c3)N=C(N)N(C)C2=O)ccc1OC(F)F` (stereo not shown) [Example 63, 2-Amino-5-[4-(difluoromethoxy)-3-methylphenyl]-5-[3-((E)-4-fluorobut-1-enyl)phenyl]-3-methyl-3,5-dihydro-4H-imidazol-4-one], for which the half-inhibitory concentration (IC50) was less than 100 nM.
Take `COCC/C=C/c1cccc(C2(c3ccc(OC(F)F)c(C)c3)N=C(N)N(C)C2=O)c1` (stereo not shown) [Example 64, 2-Amino-5-[4-(difluoromethoxy)-3-methylphenyl]-5-[3-((E)-4-methoxybut-1-enyl)phenyl]-3-methyl-3,5-dihydro-4H-imidazol-4-one]: the IC50 is less than 100 nM.
With `C/C=C/c1cccc(C2(c3ccc(OC(F)F)c(Cl)c3)N=C(N)N(C)C2=O)c1` (stereo not shown) [Example 65, 2-Amino-5-[3-chloro-4-(difluoromethoxy)phenyl]-3-methyl-5-[((E)-3-prop-1-enyl)phenyl]-3,5-dihydro-4H-imidazol-4-one], the IC50 is less than 100 nM.
Consider `COC/C=C/c1cccc(C2(c3ccc(OC(F)F)c(Cl)c3)N=C(N)N(C)C2=O)c1` (stereo not shown) [Example 66, 2-Amino-5-[3-chloro-4-(difluoromethoxy)phenyl]-5-[3-((E)-3-methoxyprop-1-enyl)phenyl]-3-methyl-3,5-dihydro-4H-imidazol-4-one], for which the half-maximal inhibitory concentration (IC50) was less than 100 nM.
On to `COCC/C=C/c1cccc(C2(c3ccc(OC(F)F)c(Cl)c3)N=C(N)N(C)C2=O)c1` (stereo not shown) [Example 67, 2-Amino-5-[3-chloro-4-(difluoromethoxy)phenyl)-5-[3-((E)-4-methoxybut-1-enyl)phenyl]-3-methyl-3,5-dihydro-4H-imidazol-4-one], for which the half-inhibitory concentration (IC50) is less than 100 nM.
For `CN1C(=O)C(c2cccc(/C=C/CCF)c2)(c2ccc(OC(F)F)c(Cl)c2)N=C1N` (stereo not shown) [Example 68, 2-Amino-5-[3-chloro-4-(difluoromethoxy)phenyl)-5-[3-((E)-4-fluoro-but-1-enyl)phenyl]-3-methyl-3,5-dihydro-4H-imidazol-4-one], the 50% inhibitory concentration (IC50) is less than 100 nM.
Take `COCC#Cc1cccc([C@@]2(c3ccc(OC(F)F)c(C)c3)N=C(N)N(C)C2=O)c1` [Example 69, (5S)-2-Amino-4-(4-(difluoromethoxy)-3-methylphenyl)-4-(3-(3-methoxyprop-1-ynyl)phenyl)-1-methyl-1H-imidazol-5(4H)-one]: the half-maximal inhibitory concentration (IC50) was less than 100 nM.
With `COCC#Cc1cccc([C@]2(c3ccc(OC(F)F)c(C)c3)N=C(N)N(C)C2=O)c1` [Example 70, (5R)-2-Amino-4-(4-(difluoromethoxy)-3-methylphenyl)-4-(3-(3-methoxyprop-1-ynyl)phenyl)-1-methyl-1H-imidazol-5(4H)-one], the IC50 lay in the range of 110 to 1000 nM.
Consider `Cc1cc(C2(c3ccc(OC(F)F)c(C)c3)N=C(N)N(C)C2=O)ccc1OC(F)F` [Example 71, 2-Amino-5,5-bis-[4-(difluoromethoxy)-3-methylphenyl]-3-methyl-3,5-dihydro-4H-imidazol-4-one], for which the IC50 was in the range of 110 to 1000 nM.
On to `CN1C(=O)C(c2ccccc2)(c2ccc(OC(F)F)c(CCF)c2)N=C1N` (stereo not shown) [Example 74, 2-amino-5-[4-(difluoromethoxy)-3-(2-fluoroethyl)phenyl]-3-methyl-5-phenyl-3,5-dihydro-4H-imidazol-4-one], for which the 50% inhibitory concentration (IC50) lay in the range of 110 to 1000 nM.
Regarding `Cc1cccc(C2(c3ccc(OC(F)F)c(C)c3)N=C(N)N(C)C2=O)c1` (stereo not shown) [Example 77, 2-amino-5-[4-(difluoromethoxy)-3-methylphenyl]-3-methyl-5-(3-methylphenyl)-3,5-dihydro-4H-imidazol-4-one], the IC50 was in the range of 110 to 1000 nM.
In the case of `CCCC#Cc1cccc([C@@]2(c3ccc(OC(F)F)c(C)c3)N=C(N)N(C)C2=O)c1` [Example 78, (5S)-2-amino-5-[4-(difluoromethoxy)-3-methylphenyl]-3-methyl-5-(3-pent-1-yn-1-ylphenyl)-3,5-dihydro-4H-imidazol-4-one] it was less than 100 nM; in that of `CCC#Cc1cccc(C2(c3ccc(OC(F)F)c(C)c3)N=C(N)N(C)C2=O)c1` (stereo not shown) [Example 81, 2-amino-4-(3-(but-1-ynyl)phenyl)-4-(4-(difluoromethoxy)-3-methylphenyl)-1-methyl-1H-imidazol-5(4H)-one], less than 100 nM; in that of `CCC#Cc1cc(C2(c3ccc(OC(F)F)c(C)c3)N=C(N)N(C)C2=O)ccc1F` (stereo not shown) [Example 82, 2-amino-5-(3-but-1-yn-1-yl-4-fluorophenyl)-5-[4-(difluoromethoxy)-3-methylphenyl]-3-methyl-3,5-dihydro-4H-imidazol-4-one], less than 100 nM.
In the case of `CN1C(=O)C(c2ccc(F)c(OCCCF)c2)(c2ccc(OC(F)F)c(C3CC3)c2)N=C1N` (stereo not shown) [Example 85, 2-amino-5-[3-cyclopropyl-4-(difluoromethoxy)phenyl]-5-[4-fluoro-3-(3-fluoropropoxy)phenyl]-3-methyl-3,5-dihydro-4H-imidazol-4-one] it was less than 100 nM; in that of `CCCC#Cc1cc(C2(c3ccc(OC(F)F)c(CCF)c3)N=C(N)N(C)C2=O)ccc1F` (stereo not shown) [Example 88, 2-amino-5-[4-(difluoromethoxy)-3-(2-fluoroethyl)phenyl]-5-(4-fluoro-3-pent-1-yn-1-ylphenyl)-3-methyl-3,5-dihydro-4H-imidazol-4-one], less than 100 nM; in that of `CCC#Cc1cc(C2(c3ccc(OC(F)F)c(CCF)c3)N=C(N)N(C)C2=O)ccc1F` (stereo not shown) [Example 89, 2-amino-5-(3-but-1-yn-1-yl-4-fluorophenyl)-5-[4-(difluoromethoxy)-3-(2-fluoroethyl)phenyl]-3-methyl-3,5-dihydro-4H-imidazol-4-one], less than 100 nM.
In the case of `CC(C)CC#Cc1cc(C2(c3ccc(OC(F)F)c(CCF)c3)N=C(N)N(C)C2=O)ccc1F` (stereo not shown) [Example 90, 2-amino-5-[4-(difluoromethoxy)-3-(2-fluoroethyl)phenyl]-5-[4-fluoro-3-(4-methylpent-1-yn-1-yl)phenyl]-3-methyl-3,5-dihydro-4H-imidazol-4-one] it was less than 100 nM.
As to `CN1C(=O)C(c2ccc(F)c(C#CCCF)c2)(c2ccc(OC(F)F)c(CCF)c2)N=C1N` (stereo not shown) [Example 91, 2-amino-5-[4-(difluoromethoxy)-3-(2-fluoroethyl)phenyl]-5-[4-fluoro-3-(4-fluorobut-1-yn-1-yl)phenyl]-3-methyl-3,5-dihydro-4H-imidazol-4-one], the IC50 was less than 100 nM.
Turning to `CN1C(=O)C(c2ccc(F)c(C#CC3CC3)c2)(c2ccc(OC(F)F)c(CCF)c2)N=C1N` (stereo not shown) [Example 92, 2-amino-5-[3-(cyclopropylethynyl)-4-fluorophenyl]-5-[4-(difluoromethoxy)-3-(2-fluoroethyl)phenyl]-3-methyl-3,5-dihydro-4H-imidazol-4-one], the IC50 was less than 100 nM.
In the case of `CN1C(=O)C(c2ccc(F)c(O)c2)(c2ccc(OC(F)F)c(Cl)c2)N=C1N` (stereo not shown) [Example 95, 2-Amino-5-[3-chloro-4-(difluoromethoxy)phenyl]-5-(4-fluoro-3-hydroxyphenyl)-3-methyl-3,5-dihydro-4H-imidazol-4-one] it was 110 to 1000 nM; in that of `CCOc1cc(C2(c3ccc(OC(F)F)c(Cl)c3)N=C(N)N(C)C2=O)ccc1F` (stereo not shown) [Example 96, 2-Amino-5-[3-chloro-4-(difluoromethoxy)phenyl]-5-(3-ethoxy-4-fluorophenyl)-3-methyl-3,5-dihydro-4H-imidazol-4-one], less than 100 nM; in that of `CCCOc1cc(C2(c3ccc(OC(F)F)c(Cl)c3)N=C(N)N(C)C2=O)ccc1F` (stereo not shown) [Example 97, 2-Amino-5-[3-chloro-4-(difluoromethoxy)phenyl]-5-(4-fluoro-3-propoxyphenyl)-3-methyl-3,5-dihydro-4H-imidazol-4-one], less than 100 nM.
In the case of `CN1C(=O)C(c2ccc(OC(F)F)c(Cl)c2)(c2ccc(F)c(OCCCF)c2)N=C1N` (stereo not shown) [Example 98, 2-Amino-5-[3-chloro-4-(difluoromethoxy)phenyl]-5-[4-fluoro-3-(3-fluoropropoxy)phenyl]-3-methyl-3,5-dihydro-4H-imidazol-4-one] it was less than 100 nM.
In the case of `CN1C(=O)C(c2ccc(OC(F)F)c(Cl)c2)(c2ccc(F)c(OCCF)c2)N=C1N` (stereo not shown) [Example 99, 2-Amino-5-[3-chloro-4-(difluoromethoxy)phenyl]-5-[4-fluoro-3-(2-fluoroethoxy)phenyl]-3-methyl-3,5-dihydro-4H-imidazol-4-one] it was less than 100 nM.
